Measurements taken from patent US20100221388A1, “INSTANTLY SOLUBLE COMPOSITIONS FOR CALCIUM FORTIFICATION OF BEVERAGES” (priority 2008, published 2010).
Each block holds one compound with its values, some of them ahead of it.

Experiments:
Casein = experiment: coagulation in casein-containing preparations with calcium salts (150 mg elemental calcium); type: physicochemical; details: room temperature
[1] = visual test of transparency for calcium-oxalate crystal formation in hot black tea with calcium salt (100 mg elemental calcium); type: physicochemical; details: 240 ml hot black tea
Method: The data describes the effect of different levels of Mg and ascorbic acid (vitamin C) on appearance of visible calcium oxalate precipitation. The experiments were performed with various soluble calcium salts by adding different levels of ascorbic acid and Magnesium citrate and testing the impact on formation of calcium-oxalate crystals in tea preparations. […] The calcium salt mixture was added and stirred into a cup holding 240 ml of hot black tea made with boiling tap water. A visual test of transparency was made at 5, 10, 15 and 20 minutes after adding the mixture to the tea for determining any impact on solution clarity by formation of calcium-oxalate crystals. If visible crystals were formed within 10 minutes the result was determined “unacceptable”, if visible crystals were formed between 10-20 minutes then the results was marked “borderline”. If no crystals were visible within 20 minutes the result was marked “acceptable”. FIGS. 1-5 show the experimental results for various calcium salts. In each of the figures the X-axis marks the amount of Magnesium Citrate (mg) and the Y-axis marks the amount of ascorbic acid (mg). Each indicia of a circle, diamond or square signifies the experimental outcome of a separate experiment; circles indicate an acceptable outcome, diamonds indicate a borderline acceptable (less than optimal) outcome, and squares indicate an unacceptable outcome.

[2] = casein-containing non-dairy creamer in water

level sufficient to limit the coagulation to a minimal and acceptable change in appearance (Casein; [2]): 825 mg
lowest level required for preventing coagulation (Casein; [2]): 3000 mg
lowest level that prevented coagulation (Casein; half & half (mix of milk and cream)): 500 mg
amount sufficient to prevent coagulation (Casein; whole milk (about 3% fat)): 10 mg
SMILES: O=P([O-])([O-])O.[K+].[K+] [PP, Potassium phosphate dibasic anhydrous]

minimal amount of ascorbic acid required to delay or prevent calcium oxalate formation ([1]; in general across calcium salts (FIGS. 1-5)): 30 mg
SMILES: O=C1O[C@H]([C@@H](O)CO)C(O)=C1O [ascorbic acid]

SMILES: CC(=O)[O-].CC(=O)[O-].[Ca+2] [calcium acetate, Calcium diacetate]
need for additives to delay or prevent calcium oxalate formation, by calcium salt ([1]; ascorbic acid with or without Magnesium Citrate): additional “competing salt” is required even with higher level of ascorbic acids
